The experiment has as its system CSM14.1 cells. The experiment is described as follows: Primary HTS assay: ATP content (ATPlite) of undifferentiated CSM14.1 cells challenged with thapsigargin. The note with it: thapsigargin-induced death of undifferentiated CSM14.1, ATP content. It is filed as cell-based, rat. The text has this:
For convenience, and because transient reductions in temperature that might be associated with large screening experiments could restore Large T activity, we elected to develop our HTS using undifferentiated CSM14.1 cells, with the plan to then confirm hits using differentiated cells. For monitoring cell death, we used a commercially available bioluminescence reagent that determines intracellular ATP content, without requirement for complicated cell processing steps (ATPlite, Perkin Elmer). Thus, ATP was used as a surrogate indicator of cell survival for the primary assay.
Undifferentiated or differentiated CSM14.1 cells were plated at a density of 3,000 cells/well in 40 μL DMEM medium (containing 10% serum, 1 mM L-glutamine, and antibiotics) in 96 well flat-bottom microtiter plates composed of polystrene (Greiner Bio One, polystyrene, white wall, flat bottom, lumitrac, high binding). After overnight incubation at 32° C., DMSO (0.5% v/v) or 100 uM Salubrinal (Sal) in DMSO was delivered. After 2 hrs, 5 uL of a stock solution of 150 uM TG in DMEM medium containing 0.75% (v:v) DMSO to achieve a final concentration of approximately 15 uM. After culturing for 24 hrs, cellular ATP content was measured by addition of 20 uL per well of ATPlite solution (Perkin-Elmer), and then the plates were incubated for three minutes at room temperature, before reading with a Microplate Luminometer (BD Pharmingen Moonlight model 3096).
To determine the reproducibility of the ATP content assay, we prepared a 96-well plate in which half the wells received TG plus DMSO (assay minimum) and half received TG plus Salubrinal (assay maximum), then performed the ATP content studies using undifferentiated CSM14.1 cells (FIG. 6). CSM14.1 cells were cultured overnight at 3,000 cells per well in 96-well flat-bottom plates, then either DMSO (0.5% final concentration) or Salubrinal (100 μM) in DMSO (0.5% final concentration) was added to half the well (48 each). After two hrs, TG was added to all wells (15 μM final). Cells were cultured for 24 hrs, then the ATP content was measured using the ATPlite luminogenic assay. We then adapted this assay to the high-throughput environment, using a Biomex™ FX liquid handler for automated dispensing of assay components into microwells of 96-well plates. First, undifferentiated CSM14.1 cells were grown at 32° C. in DMEM medium supplemented with 10% fetal bovine serum (FBS), 1% penicillin/streptomycin, and 1% L-glutamine in 150 mm×25 mm polystyrene culture dishes to produce approximately 3×10^6 cells. Second, CSM14.1 cells were recovered from cultures by trypsinization when at 80-90% confluence, and suspended at 7.5×10^4 cells/mL in DMEM medium containing 2% FBS, 1 mM L-glutamine, and antibiotics 100 IU penicillin 100 μg/ml streptomycin. Third, the cell suspension was then delivered at 40 μL per well of 96-well plastic microtiter plates (Greiner Bio One, polystyrene, white wall, flat bottom, lumitrac, high binding, cat #655074), and the plates were cultured overnight at 32° C. in a humidified atmosphere in 95% air: 5% CO2. Fourth, using the automated liquid handler, 5 μL of test compounds in 10% DMSO were added to wells in columns 2-11 of the 96-well plates (leaving columns 1 and 12 intact) to achieve an approximate final concentration of 15 μg/mL test compound and a final concentration of 1% DMSO. Fifth, 5 μL of 1 mM Salubrinal in a solution of 10% DMSO:90% DMEM was added to wells of column 1/rows A-D of each plate, while 5 μL of 10% DMSO:90% DMEM solution was added to wells corresponding to column 1/rows E-H and to all wells in column 12. Sixth, the plates were returned to culture.

Where [1] appears, read: one value given, read-out: IC50.
Setting [2] is: first assay, read-out: IC50 (μM), first value.
Setting [3] is: second assay (value in bold), read-out: IC50 (μM), value from a second assay.
The mark [4] stands for this setting: Rattus norvegicus, one value given, read-out: IC50.

SMILES strings stand for the structures. Where two headings read alike, the source gives them in different places.

As to `CCN(CC)c1ccc(C2=Nc3ccccc3NC3=C2C(=O)CC(c2ccc(Cl)cc2)C3)cc1` (racemic) [MLS-0292126], the IC50 under setting [1] is 16.5 µM.

Consider `COc1ccc(C2CC(=O)C3=C(C2)Nc2ccccc2NC3c2cccc(O)c2)cc1OC` (stereo not shown) [Compound 3192-5300], for which the IC50 under setting [1] was 53.5 ± 3.45 µM. On the same count and under the same terms, the same measure for `CCOc1ccc(C2CC(=O)C3=C(C2)Nc2ccccc2NC3c2cc(F)ccc2Cl)cc1OC` (stereo not shown) [Compound 5991-0620]: over 200 µM; for `COc1ccccc1CN1CCN(C(=O)c2cc(OC)c(OC)c(OC)c2)CC1` [Compound 5397316]: over 200 µM. With `CCn1c2ccccc2c2cc(CN3CCN(C(=O)c4cc(OC)c(OC)c(OC)c4)CC3)ccc21` [Compound 5397372], the IC50 under setting [2] came to 18.9 ± 0.568 µM and the 50% inhibitory concentration (IC50) under setting [3] turned out to be 13.5 ± 2.02 µM. Regarding `O=C(C(c1ccccc1)c1ccccc1)N1CCN(Cc2ccccc2[N+](=O)[O-])CC1` [Compound 5948365], under setting [1], the IC50 stood at 19.5 µM.

As for `CCn1c2ccccc2c2cc(CN3CCN(C(=O)c4cccs4)CC3)ccc21` [Compound 5951613], the half-inhibitory concentration (IC50) under setting [2] was found to be 16.74 ± 0.158 µM and the IC50 under setting [3] is 12.7 ± 1.11 µM. `COc1ccc(CN2CCN(C(=O)c3ccc(-c4ccccc4)cc3)CC2)c(OC)c1` [Compound 5955734]: the half-inhibitory concentration (IC50) is 23.8 µM under setting [2] and 16.5 ± 1.47 µM under setting [3]. For `CSc1ccc(C2Nc3ccccc3NC3=C2C(=O)CC(c2ccccc2)C3)cc1` (stereo not shown) [Compound 5963958], the IC50 is, setting by setting: under setting [2], 18.6 ± 9.14 µM; under setting [1], 12.5 ± 0.179 µM; under setting [3], 12.5 ± 0.179 µM.

Regarding `COc1ccc(C2CC(=O)C3=C(C2)Nc2ccccc2NC3c2cccc(Cl)c2)cc1` (stereo not shown) [Compound 5969327, 11-(3-chlorophenyl)-3-(4-methoxyphenyl)-2,3,4,5,10,11-hexahydro-1H-dibenzo[b,e][1,4]diazepin-1-one], under setting [4], the 50% inhibitory concentration (IC50) amounted to 21.7 ± 1.07 µM.

For `CCN(CC)c1ccc(C2Nc3ccccc3NC3=C2C(=O)CC(c2ccc(OC)cc2)C3)cc1` (stereo not shown) [Compound 5969590], the IC50 under setting [1] is 11.4 ± 1.49 µM.

As for `COc1ccc(Br)cc1CN1CCN(C(=O)c2ccc(-c3ccccc3)cc2)CC1` [Compound 5990041], the IC50 by setting is: under setting [2], 12.8 ± 0.318 µM; under setting [3], 14.2 ± 1.2 µM.

On to `CCOc1ccc(CN2CCN(C(=O)c3ccc(-c4ccccc4)cc3)CC2)cc1` [Compound 5990076, 1-(4-biphenylylcarbonyl)-4-(4-ethoxybenzyl)piperazine], for which the IC50 under setting [4] was over 200 µM. Take `COc1ccc(OC)c(CN2CCN(C(=O)c3ccc(-c4ccccc4)cc3)CC2)c1` [Compound 5990137]: the IC50 is, setting by setting: under setting [2], 17.5 ± 0.675 µM; under setting [3], 13.9 ± 1.06 µM. Turning to `COc1ccccc1CN1CCN(C(=O)c2ccc(-c3ccccc3)cc2)CC1` [Compound 5996087, 1-(4-biphenylylcarbonyl)-4-(2-methoxybenzyl)piperazine], the half-maximal inhibitory concentration (IC50) under setting [4] lay in the range of 25 to 50 µM.

As for `CCn1c2ccccc2c2cc(CN3CCN(C(=O)c4ccc(OC)c(OC)c4)CC3)ccc21` [Compound 6033352], the IC50 under setting [2] was found to be 13.4 ± 0.248 µM and the IC50 under setting [3] turned out to be 13.8 ± 0.548 µM.

As to `CCn1c2ccccc2c2cc(CN3CCN(C(=O)c4ccc([N+](=O)[O-])cc4)CC3)ccc21` [Compound 6034674], the IC50 is, setting by setting: under setting [2], 15 ± 0.495 µM; under setting [3], 11.5 ± 0.501 µM. In the case of `COc1cccc(CN2CCN(C(=O)c3ccc(-c4ccccc4)cc3)CC2)c1OC` [Compound 6035098], the IC50 turned out to be 19.8 ± 0.721 µM under setting [2] and 16.6 ± 2.03 µM under setting [3]. With `COc1ccc(C2CC(=O)C3=C(C2)Nc2ccccc2NC3c2ccccc2OC(C)C)cc1` (stereo not shown) [Compound 6043556, 11-(2-isopropoxyphenyl)-3-(4-methoxyphenyl)-2,3,4,5,10,11-hexahydro-1H-dibenzo[b,e][1,4]diazepin-1-one], the IC50 under setting [4] is 24 ± 2.31 µM. Take `COc1ccc(C2CC(=O)C3=C(C2)Nc2ccccc2NC3c2c(F)cccc2Cl)cc1` (stereo not shown) [Compound 6044487]: the IC50 under setting [1] worked out at 15.3 ± 1.51 µM.

Regarding `CCOc1cccc(C2Nc3ccccc3NC3=C2C(=O)CC(c2ccc(OC)cc2)C3)c1` (stereo not shown) [Compound 6044673], the IC50 reads like this: under setting [2], 20.2 ± 0.781 µM; under setting [1], 21.2 ± 0.362 µM; under setting [3], 21.2 ± 0.362 µM. Take `COc1ccc(C2CC(=O)C3=C(C2)Nc2ccccc2NC3c2ccc(O)cc2)cc1` (stereo not shown) [Compound 6045744, 11-(4-hydroxyphenyl)-3-(4-methoxyphenyl)-2,3,4,5,10,11-hexahydro-1H-dibenzo[b,e][1,4]diazepin-1-one]: the IC50 under setting [4] was over 200 µM.

For the compound `Cc1ccc(C2Nc3ccccc3NC3=C2C(=O)CC(c2ccc(Cl)cc2)C3)cc1` (stereo not shown) [Compound 6047795], the IC50 under setting [1] was determined as 11 ± 1.04 µM. On to `CC(C)Oc1ccccc1C1Nc2ccccc2NC2=C1C(=O)CC(c1ccc(Cl)cc1)C2` (stereo not shown) [Compound 6047998], for which the IC50 under setting [1] was 8.09 ± 0.832 µM.

On to `CCOc1cc(C2Nc3ccccc3NC3=C2C(=O)CC(c2ccc(OC)cc2)C3)cc(Br)c1O` (stereo not shown) [Compound 6048306], for which the IC50 under setting [1] is 18.2 ± 1.93 µM. Take `COc1ccc(C2Nc3ccccc3NC3=C2C(=O)CC(c2ccc(Cl)cc2)C3)cc1` (stereo not shown) [Compound 6049070, 3-(4-chlorophenyl)-11-(4-methoxyphenyl)-2,3,4,5,10,11-hexahydro-1H-dibenzo[b,e][1,4]diazepin-1-one]: under setting [4], the half-maximal inhibitory concentration (IC50) was 12.5 ± 0.13 µM. As to `COc1ccc(C2CC(=O)C3=C(C2)Nc2ccccc2NC3c2ccc(C(C)C)cc2)cc1` (stereo not shown) [Compound 6049861], the IC50 under setting [1] came out at 10.3 ± 1.28 µM.

For `O=C1CC(c2ccccc2)CC2=C1C(c1ccccc1Cl)Nc1ccccc1N2` (stereo not shown) [Compound 6065973], the 50% inhibitory concentration (IC50) under setting [1] is over 200 µM. Same read-out and setting: in the case of `CCCCOc1ccccc1C1Nc2ccccc2NC2=C1C(=O)CC(c1ccccc1)C2` (stereo not shown) [Compound 6066511] it was 19.2 ± 2.16 µM. Same read-out and setting: in the case of `COc1ccc(C2CC(=O)C3=C(C2)Nc2ccccc2NC3c2ccc(NC(C)=O)cc2)cc1` (stereo not shown) [Compound 6067345] it was over 100 µM. Regarding `COc1ccc(C2CC(=O)C3=C(C2)Nc2ccccc2NC3c2ccccc2Cl)cc1OC` (stereo not shown) [Compound 6076307, 11-(2-chlorophenyl)-3-(3,4-dimethoxyphenyl)-2,3,4,5,10,11-hexahydro-1H-dibenzo[b,e][1,4]diazepin-1-one], the IC50 under setting [4] came to 41.7 ± 0.916 µM. As for `COc1ccc(C2CC(=O)C3=C(C2)Nc2ccccc2NC3c2ccc(F)c(F)c2)cc1` (stereo not shown) [Compound 6079090, 11-(3,4-difluorophenyl)-3-(4-methoxyphenyl)-2,3,4,5,10,11-hexahydro-1H-dibenzo[b,e][1,4]diazepin-1-one], the IC50 under setting [4] was 21.7 ± 0.247 µM.

For `COc1ccc(C2CC(=O)C3=C(C2)Nc2ccccc2NC3c2c(Cl)cccc2Cl)cc1` (stereo not shown) [Compound 6079349], the concentration for half-maximal inhibition (IC50) under setting [1] amounted to 31.5 ± 2.84 µM. With `COc1ccc(C2CC(=O)C3=C(C2)Nc2ccccc2NC3c2ccc(C)cc2)cc1OC` (stereo not shown) [Compound 6105705, 3-(3,4-dimethoxyphenyl)-11-(4-methylphenyl)-2,3,4,5,10,11-hexahydro-1H-dibenzo[b,e][1,4]diazepin-1-one], the IC50 under setting [4] was 25 ± 0.169 µM. Turning to `O=C1CC(c2ccccc2)CC2=C1C(c1c(F)cccc1Cl)Nc1ccccc1N2` (stereo not shown) [Compound 6237973], the 50% inhibitory concentration (IC50) runs as follows: under setting [2], 22.6 ± 0.68 µM; under setting [1], 19.49 ± 0.169 µM; under setting [3], 19.49 ± 0.169 µM.

As for `COc1ccc(C2CC(=O)C3=C(C2)Nc2ccccc2NC3c2cccc(C(F)(F)F)c2)cc1OC` (stereo not shown) [Compound 6238475], the IC50 turned out to be 18.81 ± 0.157 µM under setting [2], 12.5 ± 0.17 µM under setting [1] and 12.5 ± 0.17 µM under setting [3]. Regarding `COc1ccc(C2CC(=O)C3=C(C2)Nc2ccccc2NC3c2cccc(Br)c2)cc1OC` (stereo not shown) [Compound 6239538], the IC50 is 15.5 ± 0.243 µM under setting [2], 12.5 ± 0.177 µM under setting [1] and 12.5 ± 0.177 µM under setting [3].

The values above are taken from patent US20080293699A1, “Inhibitors of thapsigargin-induced cell death” (priority 2007, published 2008).
